“Also recorded” adds a separate entry of the source.
System: TMD8 cells
Experiment: RT-qPCR of IRF4, BCL6, MYC mRNA
Type: cell-based, human
Conditions: 24 h, tirabrutinib 1 μM, BMS-345541 10 μM, MK-2206 1 μM, refametinib 0.1 μM
Procedure: After culturing, total RNA was isolated from cells using the RNeasy Plus Mini Kit (Qiagen), then cDNA was prepared from total RNA using the SuperScript VILO cDNA Synthesis Kit (Invitrogen) following the kit instructions. For quantification of each mRNA expression level, PCR was performed using TaqMan Fast Universal PCR Master Mix (Thermo Fisher Scientific) under the following conditions with the AriaMx Real Time PCR System (Agilent Technologies): 95°C for 3 min, followed by 40 cycles at 95°C for 5 s and 60°C for 20 s with continuous fluorescence measurement. All PCRs were performed in triplicate, and the mRNA expression of GAPDH was used as an internal control. The results (fold changes of the threshold cycle [Ct] relative to the control group) were obtained using the 2^−ΔΔCt method. The TaqMan probes for IRF4 (Assay ID: Hs00180031_m1), BCL6 (Assay ID: Hs00153368_m1), MYC (Assay ID: Hs00153408_m1), and GAPDH (Assay ID: Hs02786624_g1) were purchased from Thermo Fisher Scientific. Statistical tests were performed with the SAS 9.4 (SAS Institute Japan Ltd., Tokyo, Japan) TS1M4-based EXSUS system version 10.1.3 (CAC Corporation, Tokyo, Japan). The t-test or Dunnett test was used to compare mRNA expression in the DMSO- and compound-treated groups. The statistical tests were two-sided with a 5% significance level.

Row | SMILES | IRF4 mRNA expression | MYC mRNA expression
1 | Cc1ccc2nc(NCCN)c3ncc(C)n3c2c1 [BMS-345541] | significant downregulation; also recorded: strongly inhibited | significant downregulation; also recorded: strong inhibition
2 | NC1(c2ccc(-c3nc4ccn5c(=O)[nH]nc5c4cc3-c3ccccc3)cc2)CCC1 [MK-2206] | did not downregulate | did not downregulate
3 | COc1cc(F)c(F)c(Nc2ccc(I)cc2F)c1NS(=O)(=O)C1(C[C@H](O)CO)CC1 [refametinib] | – | tended to downregulate; also recorded: partially downregulated
